The source of these data is paper PMC5673977, “Transport Deficiency Is the Molecular Basis of Candida albicans Resistance to Antifungal Oligopeptides” (Frontiers in Microbiology, 2017).

By MIC is commonly meant the least concentration at which growth counts as inhibited. A higher MIC goes with a need for much substance.

Holding throughout (type): cell-based, Candida albicans
For one data set, the system named is C. albicans SC5314. Briefly: Initial peptide uptake rate. The note with it: SC 5314; cells grown in YNB-SG; 50 mM potassium phosphate buffer (pH 5.0 or 6.5) + 1% glucose, 30°C, 100 μM peptide, residual peptide by TNBS A420, slope 0- to 10-min. As to the method:
(§1) Yeast cells grown exponentially in the YNB-SG medium were harvested by centrifugation (3000 ×g, 5 min), washed with 50 mM potassium phosphate buffer (pH 5.0 or 6.5), and suspended in the same buffer containing 1% glucose, to a final cell density corresponding to A660 ≅ 1.0. The cell suspension was incubated at 30°C. After 10 min, an oligopeptide solution was added, to give a final concentration of 100 μM. At that moment and at 5 min intervals thereafter, 2 mL samples of the cell suspension were withdrawn, immediately filtered through the Whatman GF/A filters and the filtrates were used to determine the residual peptide concentration. Then, the 1 mL portions of the filtrates were taken and combined with 1.25 mL aliquots of a solution containing 4% Na2B4O7 × 10 H2O and 0.8 mg mL^-1 of 2,4,6-trinitrobenzenesulfonate. The reaction was carried out at 37°C for 30 min. The A420 values were measured and the peptide concentration was read from the appropriate standard curve. Data were plotted as nanomoles of an oligopeptide, taken up by 1 mg (dry weight) of cells versus time. The initial uptake velocities were determined from the slopes of the linear part of the curves, in the 0- to 10-min region.

The next data set concerns C. albicans opt1Δ. Briefly: Initial peptide uptake rate. The note with it: 50 mM potassium phosphate buffer (pH 5.0 or 6.5) + 1% glucose, 30°C, 100 μM peptide, TNBS A420, slope 0- to 10-min. As to the method:
as §1

Data set [1] concerns C. albicans opt1–opt5Δ ptr2Δ ptr22Δ. Briefly: Initial peptide uptake rate. The note with it: 50 mM potassium phosphate buffer (pH 5.0 or 6.5) + 1% glucose, 30°C, 100 μM peptide, TNBS A420, slope 0- to 10-min. The procedure: as §1
The test system of a further data set is C. albicans opt2Δ opt3Δ. Briefly: Initial peptide uptake rate. The note with it: 50 mM potassium phosphate buffer (pH 5.0 or 6.5) + 1% glucose, 30°C, 100 μM peptide, TNBS A420, slope 0- to 10-min. The procedure: as §1
In a further data set the test system is C. albicans opt4Δ. Kind of data set: Initial peptide uptake rate. The note with it: 50 mM potassium phosphate buffer (pH 5.0 or 6.5) + 1% glucose, 30°C, 100 μM peptide, TNBS A420, slope 0- to 10-min. As to the method:
as §1

In the next data set the test system is C. albicans opt5Δ. Kind of data set: Initial peptide uptake rate. To be noted: 50 mM potassium phosphate buffer (pH 5.0 or 6.5) + 1% glucose, 30°C, 100 μM peptide, TNBS A420, slope 0- to 10-min. The procedure:
as §1

A further data set has as its system C. albicans ptr2Δ ptr22Δ. Briefly: Initial peptide uptake rate. To be noted: 50 mM potassium phosphate buffer (pH 5.0 or 6.5) + 1% glucose, 30°C, 100 μM peptide, TNBS A420, slope 0- to 10-min. As to the method:
as §1

In the next data set the test system is C. albicans isolate LNF1. To be noted: YNB-SG medium. The source says:
(§2) The in vitro growth inhibitory activity of antifungals was quantified by determination of minimal inhibitory concentration (MIC) values by the serial twofold dilution method, using the 96-well microtiter plates in three media: buffered RPMI-1640, YNB-AS, and YNB-SG. Conditions of the RPMI-1640-based assay were the same as outlined in the CLSI recommendations ([Clinical Laboratory Standards Institute, 2008]), except for the end-point readout that was done by spectrophotometric determination of cell density at 531 nm. Turbidity in individual wells was measured with a microplate reader (Victor^3; Perkin Elmer). MIC was defined as the lowest drug concentration that gave at least an 80% decrease in turbidity, relative to that of the drug-free growth control.
(§3) The 96-well microtiter plates were also used for determination of in vitro growth inhibitory activity in YPD and YNB-based media. Individual wells were inoculated with 5 × 10^3 cfu mL^-1 of C. albicans cells from the overnight culture in YPD medium. The inoculated plates were incubated 37°C for 24 h and then turbidity was measured with a microplate reader at 531 nm, as described above for the RPMI-1640-based assay.
(§4) Candida albicans cells, apparently resistant to FMDP-peptides, were isolated from the individual colonies formed on the surface of YNB-SG agar medium containing FMDP-peptide, 10 μg mL^-1 or within the growth inhibitory zones around the paper discs saturated with 10 μL of the FMDP-peptide solution, 1 mg mL^-1. In both versions, the agar surface was inoculated with 10^5 cells from the overnight culture in YPD medium, washed three times with sterile water, suspended in 0.2 mL of sterile water and the cell suspension was spread on the whole surface with a sterile glass rod. Plates were incubated for 48 h at 30°C and isolated colonies were picked with a platinum loop.
(§5) Growth inhibitory activity of FMDP-oligopeptides against C. albicans SC 5314 was also determined by the disc diffusion method. […] Cells grown in these colonies were collected, re-grown in YNB-AS and tested for sensitivity to FMDP-oligopeptides.

The subject of the next data set is C. albicans isolate LNF2. To be noted: YNB-SG medium.
From the text: as §2, §3, §4, §5

A further data set deals with C. albicans isolate LNF3. The note with it: YNB-SG medium.
From the text: as §2, §3, §4, §5

The test system of the next data set is C. albicans isolate NF1. To be noted: YNB-SG medium.
From the text: as §2, §3, §4, §5

The next data set relates to C. albicans isolate NF2. To be noted: YNB-SG medium.
From the text: as §2, §3, §4, §5

A further data set relates to C. albicans isolate NF3. To be noted: YNB-SG medium.
From the text: as §2, §3, §4, §5

The subject of data set [2] is C. albicans SC 5314 cells. Briefly: Morphological changes, Calcofluor White staining for chitin. To be noted: SC 5314 cells in RPMI-1640, 6 h, 30°C, F11 100 μg mL^-1. The procedure:
Candida albicans cells from the overnight cultures in YPD were harvested, washed with sterile saline and suspended in the RPMI-1640 medium, to the final cell density of 10^5 cfu mL^-1. The compounds tested were added at appropriate concentrations and cultures were incubated for 6 h at 30°C, with shaking. At time intervals, samples of 0.1 mL were collected and cells were stained for chitin. The culture samples were combined with 0.1 mL aliquots of the Calcofluor White solution [0.3 mg mL^-1 in 25 mM phosphate-buffered saline (PBS), pH 7.0] and incubated for 5 min at 25°C. The cells were then harvested, washed four times with PBS, re-suspended in 0.1 mL of the fresh PBS and transferred to a microscopic slide. The stained cells were examined with the Olympus BX 60 F5 fluorescence microscope and photographs were taken using the Studio Lite software (Pixera Corporation, United States).
Since the anticandidal activity of P10 was moderate but independent on medium content and that of F11 was higher but strongly influenced by medium composition, it seemed obvious that the molecular bases of growth inhibitory activity of P10 and F11 were different and that a higher activity of F11 resulted from the presence of FMDP in its structure. To confirm whether the anticandidal activity of F11 was a consequence of GlcN6P synthase inhibition by FMDP, a morphology of SC 5314 cells treated with F11 was compared to that of the untreated cells. The cells were stained with Calcofluor White, the fluorescent brightener that binds specifically to chitin in the fungal cell wall. […] Since it is well known that the primary septum is built of chitin, this finding confirms that the action of F11 results in inhibition of chitin biosynthesis.

The structures appear in SMILES notation. ≈ marks a conversion by molar mass, not a printed value. Where a SMILES comes first, the peptide text is derived from it. [ ]: non-standard residue; d: D form. The star is where a group is joined. Fumaryl(OMe) = COC(=O)/C=C/C(=O)*; Dap = NC[C@H](N)C(=O)O

For the compound `COC(=O)/C=C/C(=O)NC[C@H](N)C(=O)N[C@@H](CCCCN)C(=O)N[C@@H](CCCCN)C(=O)N[C@H](C(=O)N[C@H](C(=O)N[C@@H](Cc1ccccc1)C(=O)N[C@@H](Cc1c[nH]c2ccccc12)C(=O)N[C@H](C(=O)N[C@@H](CCCCN)C(=O)N[C@@H](Cc1ccccc1)C(=O)N[C@@H](CCCCN)C(=O)O)C(C)C)C(C)C)C(C)C` [Peptide F11, FMDP-Lys-Lys-Val-Val-Phe-Trp-Val-Lys-Phe-Lys] (H-[Dap](Fumaryl(OMe))KKVVFWVKFK-OH; N-terminus assumed), the “Uptake rate ± SD” value is reported as 2.25 ± 0.15 nmol min^-1 (mg dry weight)^-1 in the data set on C. albicans SC5314; 1.64 ± 0.11 nmol min^-1 (mg dry weight)^-1 in the data set on C. albicans opt1Δ; 0.18 ± 0.02 nmol min^-1 (mg dry weight)^-1 in data set [1]; 0.22 ± 0.03 nmol min^-1 (mg dry weight)^-1 in the data set on C. albicans opt2Δ opt3Δ; 1.77 ± 0.18 nmol min^-1 (mg dry weight)^-1 in the data set on C. albicans opt4Δ; 1.92 ± 0.18 nmol min^-1 (mg dry weight)^-1 in the data set on C. albicans opt5Δ. The “Uptake rate ± SD” value with C. albicans ptr2Δ ptr22Δ was 2.28 ± 0.15 nmol min^-1 (mg dry weight)^-1. For the same compound, the MIC in the data set with C. albicans isolate LNF1 is 16 µg/mL (≈ 10.6 µM); in the data set on C. albicans isolate LNF2 it was 32 µg/mL (≈ 21.2 µM); with C. albicans isolate LNF3, 16 µg/mL (≈ 10.6 µM); against C. albicans isolate NF1 it was 16 µg/mL (≈ 10.6 µM); in the data set with C. albicans isolate NF2, 32 µg/mL (≈ 21.2 µM); with C. albicans isolate NF3, 16 µg/mL (≈ 10.6 µM). Moreover, the “Morphological changes (primary septum / chitin)” value in data set [2] is recorded as “defective in formation of a primary septum”.

Regarding `COC(=O)/C=C/C(=O)NC[C@H](N)C(=O)N[C@@H](CCCNC(=N)N)C(=O)N[C@@H](CCCCN)C(=O)N[C@@H](CCCCN)C(=O)N[C@@H](Cc1c[nH]c2ccccc12)C(=O)N[C@@H](Cc1ccccc1)C(=O)N[C@@H](Cc1c[nH]c2ccccc12)C(=O)O` [Peptide F7, FMDP-Arg-Lys-Lys-Trp-Phe-Trp] (H-[Dap](Fumaryl(OMe))RKKWFW-OH; N-terminus and C-terminus assumed), the “Uptake rate ± SD” value is 2.40 ± 0.16 nmol min^-1 (mg dry weight)^-1 with C. albicans SC5314; 1.70 ± 0.12 nmol min^-1 (mg dry weight)^-1 in the data set on C. albicans opt1Δ; 0.23 ± 0.02 nmol min^-1 (mg dry weight)^-1 in [1]; 0.46 ± 0.08 nmol min^-1 (mg dry weight)^-1 in the data set on C. albicans opt2Δ opt3Δ; 1.85 ± 0.12 nmol min^-1 (mg dry weight)^-1 in the data set on C. albicans opt4Δ; 1.44 ± 0.10 nmol min^-1 (mg dry weight)^-1 in the data set on C. albicans opt5Δ. Further, the “Uptake rate ± SD” value with C. albicans ptr2Δ ptr22Δ is reported as 2.22 ± 0.16 nmol min^-1 (mg dry weight)^-1. Moreover, the MIC with C. albicans isolate LNF1, in the data set on C. albicans isolate LNF2, with C. albicans isolate LNF3, in the data set on C. albicans isolate NF1, with C. albicans isolate NF2 and with C. albicans isolate NF3 was 16 µg/mL (≈ 13.9 µM) each time. Moreover, in data set [2], the “Morphological changes (primary septum / chitin)” value is reported as “analogous to those observed for F11-treated cells”.

For the compound `COC(=O)/C=C/C(=O)NC[C@H](NC(=O)[C@H](CCSC)NC(=O)[C@@H](NC(=O)[C@@H]1CCCN1C(=O)[C@H](CC(C)C)NC(=O)[C@@H](N)CCCCN)C(C)C)C(=O)O` [Peptide F6, Lys-Leu-Pro-Val-Met-FMDP] (H-KLPVM[Dap](Fumaryl(OMe))-OH; N-terminus and C-terminus assumed), the “Uptake rate ± SD” value in the data set on C. albicans SC5314 is 3.12 ± 0.20 nmol min^-1 (mg dry weight)^-1; in the data set with C. albicans opt1Δ, 2.08 ± 0.15 nmol min^-1 (mg dry weight)^-1; in data set [1], 0.18 ± 0.03 nmol min^-1 (mg dry weight)^-1; with C. albicans opt2Δ opt3Δ it was 0.56 ± 0.09 nmol min^-1 (mg dry weight)^-1; in the data set with C. albicans opt4Δ, 2.99 ± 0.11 nmol min^-1 (mg dry weight)^-1; in the data set with C. albicans opt5Δ, 2.03 ± 0.15 nmol min^-1 (mg dry weight)^-1. In the data set on C. albicans ptr2Δ ptr22Δ, the “Uptake rate ± SD” value is listed as 3.00 ± 0.25 nmol min^-1 (mg dry weight)^-1. The MIC stood at 4 µg/mL (≈ 5.1 µM) in the data set on C. albicans isolate LNF1; 8 µg/mL (≈ 10.2 µM) against C. albicans isolate LNF2; 4 µg/mL (≈ 5.1 µM) against C. albicans isolate LNF3; 4 µg/mL (≈ 5.1 µM) in the data set with C. albicans isolate NF1; 4 µg/mL (≈ 5.1 µM) against C. albicans isolate NF2; 4 µg/mL (≈ 5.1 µM) against C. albicans isolate NF3. In addition, in [2], the “Morphological changes (primary septum / chitin)” value is “analogous to those observed for F11-treated cells”.
